Measured values as given in patent US12162872B2, “Cycloalkylurea derivative” (Sumitomo Pharma Co., Ltd., priority 2019, dated 2024).

target: T1, Human orexin receptor type 2 (Homo sapiens, UniProt O43614); assay: Test 2: Evaluation of agonist activity for orexin receptor type 2 (aequorin luminescence, intracellular calcium mobilization in CHO cells); type: cell-based; settings: relative percentage of luminescence for the luminescence (100%) of Orexin A (100 pM); CHO cells transiently expressing human orexin receptor type 2 and apoaequorin; Orexin A Lot. 671009
T1 construct: expressed in transfected cells; host or cells: CHO cells (transient expression)
T1 sequence (O43614 1-444): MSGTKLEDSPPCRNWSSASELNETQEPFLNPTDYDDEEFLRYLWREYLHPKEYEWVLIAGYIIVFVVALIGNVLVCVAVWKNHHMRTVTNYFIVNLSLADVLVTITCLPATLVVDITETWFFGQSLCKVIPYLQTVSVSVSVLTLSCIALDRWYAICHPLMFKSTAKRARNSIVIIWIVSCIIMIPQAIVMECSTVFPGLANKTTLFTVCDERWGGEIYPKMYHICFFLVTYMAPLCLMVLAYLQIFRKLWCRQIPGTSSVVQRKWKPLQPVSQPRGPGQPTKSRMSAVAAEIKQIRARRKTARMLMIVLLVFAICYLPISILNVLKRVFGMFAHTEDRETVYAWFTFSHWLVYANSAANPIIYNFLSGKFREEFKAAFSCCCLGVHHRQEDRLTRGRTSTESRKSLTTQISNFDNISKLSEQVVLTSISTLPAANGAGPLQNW
Experimental: Test 2: Evaluation of Agonist Activity for Orexin Receptor Type 2
Human orexin receptor type 2 and apoaequorin were transiently expressed in CHO cells, and the agonist activity was evaluated based on intracellular calcium mobilization with ligand stimulation. The CHO cells transiently-expressed human orexin receptor type 2 and apoaequorin were seeded on a 384-well plate by 2,000 cells/well, and then incubated for 16-22 hours. After the plate was returned to room temperature, Coelenterazine hcp (final concentration: 1 μM) was added to the plate, and the plate was allowed to stand at room temperature for 2 hours. And then, Orexin A (PEPTIDE INSTITUTE, INC., Lot. 671009) or each test compound was added to the plate, and the luminescence of the cells was measured with FDSS7000 (Hamamatsu Photonics K.K.), wherein Orexin A and each test compound were dissolved in DMSO (final concentration: 0.1%), and diluted with a buffer (Hanks, 20 mM HEPES, 0.1% BSA). The agonist activity of each test compound for orexin receptor type 2 was calculated as relative percentage of luminescence for the luminescence (100%) of Orexin A (100 pM).

Structure (SMILES) | agonist activity (%)
CC(C)N1CCCN([C@H]2CCCC(F)(F)[C@@H]2NC(=O)N2CCC(C)(c3noc([C@@H]4C[C@@H]4F)n3)CC2)CC1 [Example 152, N-{(1R,6S)-2,2-difluoro-6-[4-(propan-2-yl)-1,4-diazepan-1-yl]cyclohexyl}-4-{5-[(1S,2S)-2-fluorocyclopropyl]-1,2,4-oxadiazol-3-yl}-4-methylpiperidine-1-carboxamide] | 470%
CC(C)n1cc(O[C@H]2CCCC(F)(F)[C@@H]2NC(=O)N2CCC(C)(c3noc([C@@H]4C[C@@H]4F)n3)CC2)cn1 [Example 88, N-[(1R,6S)-2,2-difluoro-6-{[1-(propan-2-yl)-1H-pyrazol-4-yl]oxy}cyclohexyl]-4-{5-[(1S,2S)-2-fluorocyclopropyl]-1,2,4-oxadiazol-3-yl}-4-methylpiperidine-1-carboxamide] | 201%
CC(C)(C)CN1CC[C@H](O[C@H]2CCCC(F)(F)[C@@H]2NC(=O)N2CCC(C)(c3noc([C@@H]4C[C@@H]4F)n3)CC2)C1 [Example 120, N-[(1R,6S)-6-{[(3S)-1-(2,2-dimethylpropyl)pyrrolidin-3-yl]oxy}-2,2-difluorocyclohexyl]-4-{5-[(1S,2S)-2-fluorocyclopropyl]-1,2,4-oxadiazol-3-yl}-4-methylpiperidine-1-carboxamide] | 387%
CC1(c2noc([C@@H]3C[C@@H]3F)n2)CCN(C(=O)N[C@@H]2[C@@H](O[C@H]3CCN(CC4(F)CC4)C3)CCCC2(F)F)CC1 [Example 133, N-[(1R,6S)-2,2-difluoro-6-({(3S)-1-[(1-fluorocyclopropyl)methyl]pyrrolidin-3-yl}oxy)cyclohexyl]-4-{5-[(1S,2S)-2-fluorocyclopropyl]-1,2,4-oxadiazol-3-yl}-4-methylpiperidine-1-carboxamide] | 506%
CC(C)N1C[C@H]2CC[C@@H](C1)[C@H]2O[C@H]1CCCC(F)(F)[C@@H]1NC(=O)N1CCC(C)(c2noc([C@@H]3C[C@@H]3F)n2)CC1 [Example 100, N-[(1R,6S)-2,2-difluoro-6-{[(1R,5S,8R)-3-(propan-2-yl)-3-azabicyclo[3.2.1]octan-8-yl]oxy}cyclohexyl]-4-{5-[(1S,2S)-2-fluorocyclopropyl]-1,2,4-oxadiazol-3-yl}-4-methylpiperidine-1-carboxamide] | 340%
CC1(c2noc([C@@H]3C[C@@H]3F)n2)CCN(C(=O)N[C@@H]2[C@@H](N3CCC(N4CCCC4)CC3)CCCC2(F)F)CC1 [Example 124, N-{(1R,6S)-2,2-difluoro-6-[4-(pyrrolidin-1-yl)piperidin-1-yl]cyclohexyl}-4-{5-[(1S,2S)-2-fluorocyclopropyl]-1,2,4-oxadiazol-3-yl}-4-methylpiperidine-1-carboxamide] | 391%
CC(C)N1CCN([C@H]2CCCCC[C@@H]2NC(=O)N2CCC(C)(c3noc(C4CC4)n3)CC2)CC1 (racemic) [Example 151, rac-4-(5-cyclopropyl-1,2,4-oxadiazol-3-yl)-4-methyl-N-{(1S,2S)-2-[4-(propan-2-yl)piperazin-1-yl]cycloheptyl}piperidine-1-carboxamide] | 368%
CC1(CN2CC[C@H](O[C@H]3CCCC(F)(F)[C@@H]3NC(=O)N3CCC(C)(c4noc([C@@H]5C[C@@H]5F)n4)CC3)C2)COC1 [Example 150, N-[(1R,6S)-2,2-difluoro-6-({(3S)-1-[(3-methyloxetan-3-yl)methyl]pyrrolidin-3-yl}oxy)cyclohexyl]-4-{5-[(1S,2S)-2-fluorocyclopropyl]-1,2,4-oxadiazol-3-yl}-4-methylpiperidine-1-carboxamide] | 437%
CN(CC1CC1)C1CCN([C@H]2CCCC(F)(F)[C@@H]2NC(=O)N2CCC(C)(c3noc([C@@H]4C[C@@H]4F)n3)CC2)CC1 [Example 158, N-[(1R,6S)-6-{4-[(cyclopropylmethyl)(methyl)amino]piperidin-1-yl}-2,2-difluorocyclohexyl]-4-{5-[(1S,2S)-2-fluorocyclopropyl]-1,2,4-oxadiazol-3-yl}-4-methylpiperidine-1-carboxamide] | 389%
CC1(c2noc([C@@H]3C[C@@H]3F)n2)CCN(C(=O)N[C@@H]2[C@@H](O[C@H]3CCN(CC4CC4)C3)CCCC2(F)F)CC1 [Example 118, N-[(1R,6S)-6-{[(3S)-1-(cyclopropylmethyl)pyrrolidin-3-yl]oxy}-2,2-difluorocyclohexyl]-4-{5-[(1S,2S)-2-fluorocyclopropyl]-1,2,4-oxadiazol-3-yl}-4-methylpiperidine-1-carboxamide] | 524%
CCN(CC)C1CCN([C@H]2CCCC(F)(F)[C@@H]2NC(=O)N2CCC(C)(c3noc([C@@H]4C[C@@H]4F)n3)CC2)CC1 [Example 129, N-{(1R,6S)-6-[4-(diethylamino)piperidin-1-yl]-2,2-difluorocyclohexyl}-4-{5-[(1S,2S)-2-fluorocyclopropyl]-1,2,4-oxadiazol-3-yl}-4-methylpiperidine-1-carboxamide] | 435%
CC(C)N(C)C1(C)CCN([C@H]2CCCC(F)(F)[C@@H]2NC(=O)N2CCC(C)(c3noc([C@@H]4C[C@@H]4F)n3)CC2)CC1 [Example 131, N-[(1R,6S)-2,2-difluoro-6-{4-methyl-4-[methyl(propan-2-yl)amino]piperidin-1-yl}cyclohexyl]-4-{5-[(1S,2S)-2-fluorocyclopropyl]-1,2,4-oxadiazol-3-yl}-4-methylpiperidine-1-carboxamide] | 461%

The remaining lines, values ahead:

agonist activity (%) | Structure (SMILES)
369% | CC1(c2noc(C3CC3)n2)CCN(C(=O)N[C@@H]2[C@@H](O[C@H]3CCN(CC4CC4)C3)CCCC2(F)F)CC1 [Example 122, N-[(1R,6S)-6-{[(3S)-1-(cyclopropylmethyl)pyrrolidin-3-yl]oxy}-2,2-difluorocyclohexyl]-4-(5-cyclopropyl-1,2,4-oxadiazol-3-yl)-4-methylpiperidine-1-carboxamide]
243% | CC(C)N1CC[C@H](N(Cc2ccccc2)[C@H]2CCCC(F)(F)[C@@H]2NC(=O)N2CCC(C)(c3noc([C@@H]4C[C@@H]4F)n3)CC2)C1 [Example 91, N-[(1R,6S)-6-{benzyl[(3S)-1-(propan-2-yl)pyrrolidin-3-yl]amino}-2,2-difluorocyclohexyl]-4-{5-[(1S,2S)-2-fluorocyclopropyl]-1,2,4-oxadiazol-3-yl}-4-methylpiperidine-1-carboxamide]
351% | CC(C)N1CCN([C@H]2CCC[C@@H](F)[C@@H]2NC(=O)N2CCC(C)(c3noc(C4CC4)n3)CC2)CC1 (racemic) [Example 139, rac-4-(5-cyclopropyl-1,2,4-oxadiazol-3-yl)-N-{(1R,2R,6S)-2-fluoro-6-[4-(propan-2-yl)piperazin-1-yl]cyclohexyl}-4-methylpiperidine-1-carboxamide]
366% | CC(C)N1CCC(N(C)[C@H]2CCCC(F)(F)[C@@H]2NC(=O)N2CCC(C)(c3noc([C@@H]4C[C@@H]4F)n3)CC2)CC1 [Example 123, N-[(1R,6S)-2,2-difluoro-6-{methyl[1-(propan-2-yl)piperidin-4-yl]amino}cyclohexyl]-4-{5-[(1S,2S)-2-fluorocyclopropyl]-1,2,4-oxadiazol-3-yl}-4-methylpiperidine-1-carboxamide]
493% | CC(C)N1CCC(S[C@H]2CCCC(F)(F)[C@@H]2NC(=O)N2CCC(C)(c3noc([C@@H]4C[C@@H]4F)n3)CC2)CC1 [Example 154, N-[(1S,6S)-2,2-difluoro-6-{[1-(propan-2-yl)piperidin-4-yl]sulfanyl}cyclohexyl]-4-{5-[(1S,2S)-2-fluorocyclopropyl]-1,2,4-oxadiazol-3-yl}-4-methylpiperidine-1-carboxamide]
392% | CN(C1CCC1)C1CCN([C@H]2CCCC(F)(F)[C@@H]2NC(=O)N2CCC(C)(c3noc([C@@H]4C[C@@H]4F)n3)CC2)CC1 [Example 159, N-[(1R,6S)-6-{4-[cyclobutyl(methyl)amino]piperidin-1-yl}-2,2-difluorocyclohexyl]-4-{5-[(1S,2S)-2-fluorocyclopropyl]-1,2,4-oxadiazol-3-yl}-4-methylpiperidine-1-carboxamide]

same assay, conditions: relative percentage of luminescence for the luminescence (100%) of Orexin A (100 pM); CHO cells transiently expressing human orexin receptor type 2 and apoaequorin; Orexin A Lot. 671009; 0.0001 µM

Structure (SMILES) | agonist activity (%)
CN(CC1CC1)C1C[C@H]2CC[C@@H](C1)N2[C@H]1CCCC(F)(F)[C@@H]1NC(=O)N1CCC(C)(c2noc([C@@H]3C[C@@H]3F)n2)CC1 (stereo partly drawn) [Example 142, N-[(1R,6S)-6-{(1R,3S,5S)-3-[(cyclopropylmethyl)(methyl)amino]-8-azabicyclo[3.2.1]octan-8-yl}-2,2-difluorocyclohexyl]-4-{5-[(1S,2S)-2-fluorocyclopropyl]-1,2,4-oxadiazol-3-yl}-4-methylpiperidine-1-carboxamide] | 407%
